Test results: ChEMBL document CHEMBL1126339, “HMG-CoA reductase inhibitors 4. Tetrazole series: conformational constraints and structural requirements at the hydrophobic domain” (Bioorg Med Chem Lett, 1992)

Molecular target: T1, 3-hydroxy-3-methylglutaryl-coenzyme A reductase (Rattus norvegicus, UniProt P51639)
T1 sequence (P51639 whole entry): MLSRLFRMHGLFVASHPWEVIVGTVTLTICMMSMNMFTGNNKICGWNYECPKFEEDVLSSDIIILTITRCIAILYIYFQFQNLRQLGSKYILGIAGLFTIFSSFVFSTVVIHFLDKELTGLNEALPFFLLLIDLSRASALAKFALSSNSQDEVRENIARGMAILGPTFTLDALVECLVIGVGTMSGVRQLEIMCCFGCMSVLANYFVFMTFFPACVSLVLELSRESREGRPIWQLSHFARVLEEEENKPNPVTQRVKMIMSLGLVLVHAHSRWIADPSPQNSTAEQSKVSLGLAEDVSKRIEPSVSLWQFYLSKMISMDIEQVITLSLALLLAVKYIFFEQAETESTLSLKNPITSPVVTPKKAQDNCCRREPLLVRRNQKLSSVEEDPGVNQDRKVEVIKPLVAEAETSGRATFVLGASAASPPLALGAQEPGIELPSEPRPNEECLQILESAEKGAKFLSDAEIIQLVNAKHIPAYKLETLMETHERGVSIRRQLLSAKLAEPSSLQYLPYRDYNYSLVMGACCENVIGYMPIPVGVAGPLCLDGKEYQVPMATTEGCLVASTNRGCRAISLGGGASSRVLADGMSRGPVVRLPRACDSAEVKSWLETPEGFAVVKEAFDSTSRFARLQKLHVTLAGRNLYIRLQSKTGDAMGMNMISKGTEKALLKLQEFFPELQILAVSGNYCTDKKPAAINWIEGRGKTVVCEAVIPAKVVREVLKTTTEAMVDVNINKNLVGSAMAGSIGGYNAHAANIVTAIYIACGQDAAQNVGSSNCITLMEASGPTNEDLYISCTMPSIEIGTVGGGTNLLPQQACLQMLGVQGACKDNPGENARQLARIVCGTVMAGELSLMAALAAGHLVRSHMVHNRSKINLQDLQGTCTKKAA
Assay: Compound was tested for its inhibitory activity against rat liver microsomal HMG-CoA reductase

| SMILES | IC50 [µM] |
| --- | --- |
| Cn1nnnc1C(/C=C/C(O)CC(O)CC(=O)O)=C(c1ccc(F)cc1)c1ccc(F)cc1 (stereo unspecified) | 0.043 |
| Cn1nnnc1C(/C=C/C(O)CC(O)CC(=O)O)=C1c2ccc(F)cc2-c2cc(F)ccc21 (stereo unspecified) | > 4.1 |
| O=C(O)CC(O)CC(O)/C=C/c1c(-c2ccc(F)cc2)c2ccccc2n2nnnc12 (stereo unspecified) | 4.6 |
| Cn1nnnc1C(=C\c1ccc(F)cc1)/C=C/C(O)CC(O)CC(=O)O (stereo unspecified) | 210 |
| Cn1nnnc1C(/C=C/C(O)CC(O)CC(=O)O)=C/c1ccc(F)cc1 (stereo unspecified) | > 250 |
| Cn1nnnc1C(CCC(O)CC(O)CC(=O)O)Cc1ccc(F)cc1 (stereo unspecified) | > 250 |
